Holding throughout (assay type): cell-based, human
One assay concerns IL-2 in CD4+ T cells. Briefly: Intracellular IL-2 expression in activated CD4+ T cells (two-color flow cytometry). The settings on record: PMA/ionomycin alone 82%, one experiment, FIG. 5. The procedure: (§1) T-cells were activated by the addition of 500 ng ionomycin and 10 ng phorbol 12-myristate 13-acetate (PMA) (Calbiochem, La Jolla, Calif.) and incubated for 48-72 h at 37° C. PMA/ionomycin-activated T-cells were treated with 0.5-50 μM Ribavirin or with 250-10000 U/ml of a control antiviral, interferon-alpha (Accurate, Westbury, N.Y.) immediately following activation and re-treated 24 h later. T-cells from each plate were used for immunofluorescence analysis and the supernatants used for extracellular cytokine measurements. Following activation, 900 μl cell supernatant from each microplate was transferred to another microplate for analysis of cell-derived cytokine production. The cells are then used in immunofluorescence analyses for intracellular cytokine levels and cytokine receptor expression.
(§2) For analyses of the intracellular expression of IL-2 in CD4^+ and CD8^+ T cell subsets, T cells were first treated for the last 4 h of 48-72 h activation with 10 μg Brefeldin A (Gibco BRL, Gaithersburg, Md.) to minimize secretion of newly synthesized IL-2 into the extracellular milieu. […]
(§3) We examined whether the effect of Ribavirin on IL-2 expression was specific to CD4^+ or CD8^+ T cells. Intracellular IL-2 expression in fixed and Permeabilized activated T cells was determined by two-color flow cytometry using fluorescence-labeled antibodies to CD4 or CD8 and to IL-2. […]

The next assay has as its system IL-2. Briefly: Extracellular IL-2 levels in PMA/ionomycin-activated T cells (ELISA or CTLL-2 bioassay). The procedure: (§4) Peripheral blood mononuclear cells (PBMCs) were isolated from the buffy coat following Ficoll-Hypaque density gradient centrifugation of 60 ml blood from healthy donors. T-cells were then purified from the PBMCs using Lymphokwik lymphocyte isolation reagent specific for T-cells (LK-25T, One Lambda, Canoga Park Calif.). An average yield of 40-60×10^6 T-cells were then incubated overnight at 37° C. in 20-30 ml RPMI-AP5 (RPMI-1640 medium (ICN, Costa Mesa, Calif.) containing 20 mM HEPES buffer, pH 7.4, 5% autologous plasma, 1% L-glutamine, 1% penicillin/streptomycin and 0.05% 2-mercaptoethanol) to remove any contaminating adherent cells. In all experiments, T-cells were washed with RPMI-AP5 and then plated on 96-well microtitre plates at a cell concentration of 1×10^6 cells/ml.
(§5) T-cells were activated by the addition of 500 ng ionomycin and 10 ng phorbol 12-myristate 13-acetate (PMA) (Calbiochem, La Jolla, Calif.) and incubated for 48-72 h at 37° C. […]
(§6) Cell-derived human cytokine concentrations were determined in cell supernatants from each microplate. Activation-induced changes in interleukin-2 (IL-2) levels were determined using a commercially available ELISA kit (R & D systems Quantikine kit, Minneapolis, Minn.) or by bioassay using the IL-2-dependent cell line, CTLL-2 (ATCC, Rockville, Md.). […]

The next assay concerns IFNγ mRNA. Briefly: IFNγ mRNA in PMA/ionomycin-activated T cells (RT-PCR). The settings on record: FIG. 3. The procedure: as §1, with “expression. […]” for “expression.”
(§7) The PCR reaction was performed using GeneAmp PCR kit (Perkin-Elmer Cetus, Foster City, Calif.). […] PCR products were analyzed on 2% agarose gel containing ethidium bromide. […] Equivalent loading was assessed following hybridization with a probe generated from pHE7 sense primer. Washed blots were then analyzed using Phosphorlmager.

Another assay deals with TNFα. Briefly: Extracellular TNFα levels in PMA/ionomycin-activated T cells (ELISA). The procedure:
as §4, §5, §6
For orientation: In an ELISA, binding on a coated surface is turned into a signal by an enzyme label.

In another assay the test system is IL-4 mRNA. Briefly: IL-4 mRNA in PMA/ionomycin-activated T cells (RT-PCR). The conditions noted are these: FIG. 3. The procedure:
as §1, with “expression. […]” for “expression.”
as §7

The next assay has as its system IL-2 mRNA. Briefly: IL-2 mRNA in PMA/ionomycin-activated T cells (RT-PCR). The conditions noted are these: FIG. 3. The procedure: as §1, with “expression. […]” for “expression.”
as §7

For another assay, the system named is IL-4 (CDw124) receptor. Briefly: Cell surface IL-4 receptor expression in activated T cells (FACS). The settings on record: compared to control activated T cells, FIG. 4. The procedure:
as §1, with “The cells are then used in immunofluorescence analyses for intracellular cytokine levels and cytokine receptor expression.” left out
(§8) For direct staining with fluorescence-conjugated antibodies to cell surface antigens, the cells were washed twice with isotonic saline solution, pH 7.4 (Becton Dickinson, Mansfield, Mass.) and resuspended in 50 μl isotonic saline solution and split into two samples. One sample aliquot was co-stained with either PE-anti CD25/FITC-anti CD4 or PE-rat anti mouse IgG+anti-CDw124/FITC-anti CD4 mAb and non-specific fluorescence was assessed by staining the second aliquot with PE/FITC-labeled isotype-matched control monoclonal antibody. All fluorescence-labeled monoclonal antibodies were obtained from Becton Dickinson (San Jose, Calif.) except for anti-CDw124 which was obtained from Pharmingen, San Diego, Calif. […]

The test system of a further assay is IL-4. Briefly: Extracellular IL-4 levels in PMA/ionomycin-activated T cells (ELISA). The procedure: as §4, §5, §6
A further assay has as its system IL-2 in CD8+ T cells. Briefly: Intracellular IL-2 expression in activated CD8+ T cells (two-color flow cytometry). The settings on record: PMA/ionomycin alone 81%, one experiment, FIG. 5. The procedure:
as §1, §2, §3
On the technique in general: Flow cytometry measures light scatter and fluorescence of single cells or particles in a stream.

A further assay concerns IL-2 (CD25) receptor. Briefly: Cell surface IL-2 receptor expression in activated T cells (FACS). The conditions noted are these: compared to control activated T cells, FIG. 4. The procedure:
as §1, with “The cells are then used in immunofluorescence analyses for intracellular cytokine levels and cytokine receptor expression.” left out
as §8

[1] abbreviates: 2, 5 and 10 μM following T cell activation.
The mark [2] stands for this setting: range 250-10000 U/ml, dose-dependent, compared to untreated activated T cells.

The source of these data is patent publication US20030212015A1, “Specific modulation of Th1/Th2 cytokine expression by ribavirin in activated T-lymphocytes” (priority 1996, published 2003).

As usually defined, the inhibition is the change of the read-out against control, counted positive when it falls.

For `NC(=O)c1ncn([C@@H]2O[C@H](CO)[C@@H](O)[C@H]2O)n1` [Ribavirin, 1-β-D-ribofuranosyl-1,2,4-triazole-3-carboxamide], the “percentage of CD4+ T cells expressing IL-2” value in the assay with IL-2 in CD4+ T cells (10 μM) came to 91%. The “maximal augmentation of activated levels of IL-2” value with IL-2 (at 5 μM (dose range 0.5-50 μM), PMA/ionomycin-activated T cells, 48-72 h, representative experiment, FIG. 1) came to 30%. The “effect on IFNγ mRNA” value with IFNγ mRNA (setting [1]) was “has no effect”. Also, the “maximal augmentation of activated levels of TNFα” value in the assay on TNFα (at 20 μM (dose range 0.5-50 μM), PMA/ionomycin-activated T cells, 48-72 h, representative experiment, FIG. 1) amounted to 36%. Further, the “effect on IL-4 mRNA” value with IL-4 mRNA (setting [1]) is reported as “decreases”. Moreover, the “effect on IL-2 mRNA” value in the assay with IL-2 mRNA (setting [1]) is “elevates”. For the same molecule, the “effect on activated levels of IL-4 receptor” value in the assay on IL-4 (CDw124) receptor (1-50 μM) was “little effect”. Further, in the assay on IL-4 (Homo sapiens, T-cell, at 2 μM, read-out: peak inhibition of activated levels of IL-4), the inhibition at 2 µM was 74%. Moreover, the “percentage of CD8+ expressing IL-2” value in the assay with IL-2 in CD8+ T cells (10 μM) is listed as 91%. The “effect on activated levels of IL-2 receptor” value in the assay on IL-2 (CD25) receptor (1-50 μM) was “little effect”.

For interferon-α, the “percentage of IL-2-expressing CD4+ cells” value in the assay with IL-2 in CD4+ T cells (5000 U/ml) turned out to be 81%. The “maximal inhibition of IL-2 expression” value in the assay on IL-2 (setting [2]) came to 33%. The “effect on IFNγ mRNA” value with IFNγ mRNA (1000, 2000 and 5000 U/ml) is recorded as “decreases”. In the assay on TNFα (setting [2]), the “maximal inhibition of TNFα expression” value is on record as 38%. Further, the “effect on IL-4 mRNA” value in the assay with IL-4 mRNA (1000, 2000 and 5000 U/ml) was “increases”. Also, in the assay on IL-2 mRNA (1000, 2000 and 5000 U/ml), the “effect on IL-2 mRNA” value is “decreases”. The “effect on IL-4 receptor expression” value with IL-4 (CDw124) receptor (250-10000 U/ml, dose-dependent) is reported as “increased”. The “maximal increase of extracellular IL-4” value in the assay with IL-4 (10000 U/ml) was determined as 26%. In addition, the “percentage of IL-2-expressing CD8+ cells” value in the assay on IL-2 in CD8+ T cells (5000 U/ml) worked out at 71%. The “effect on IL-2 receptor expression” value with IL-2 (CD25) receptor (250-10000 U/ml, dose-dependent) is reported as “decreased”.
